# Patent US6936610B2, “Heterocyclic derivatives” (AstraZeneca UK Limited, priority 1996, dated 2005)
# Counter-ions that a name gives are not always drawn.
row,melting point [°C],Structure (SMILES)
1,128 to 130,"O=C(c1ccc(-c2ccnnc2)cc1)N1CCN(S(=O)(=O)c2ccc3cc(Br)ccc3c2)CC1 [Example 9, 1-(6-bromonaphth-2-ylsulphonyl)4-[4-(4-pyridazinyl)benzoyl]piperazine]"
2,175 to 176,"O=C(c1ccc(-c2ccncc2)cc1)N1CCN(S(=O)(=O)c2ccc3cc(Cl)ccc3c2)CC1 (as salt: trifluoroacetate) [Example 7, 1-(6-chloronaphth-2-ylsulphonyl)4-[4-(4-pyridyl)benzoyl]piperazine]"
3,204 to 205,"Cc1cc(-c2ccc(C(=O)N3CCN(S(=O)(=O)c4ccc5cc(Br)ccc5c4)CC3)cc2)ccn1 [Example 8, 1-(6-bromonaphth-2-ylsulphonyl)-4-[4-(2-methyl-4-pyridyl)benzoyl]piperazine]"
